Reference: patent publication EP0039265A1, “Medicine containing a biflavanone compound” (SCIENCE UNION ET Cie SOCIETE FRANCAISE DE RECHERCHE MEDICALE, priority 1980, dated 1981)

Columns and labels:
[1] = tested on: perméabilité capillaire; experiment: Lefebvre technique: appearance of a dye at an intradermal histamine injection site; format: in vivo; conditions: intraperitoneal 100 mg/kg, rat
Procedure: D'autres tests, utilisés chez le rat, ont confirmé les possibilités de la biflavanone dans la diminution de la perméabilité capillaire par rapport aux produits de référence classiques, et notamment les tests réalisés selon la technique de […]. Soc. Biol. 1, 183 (1962)] qui consiste à observer l'apparition d'un colorant au niveau d'une injection intradermique d'histamine. Il a été constaté que l'infection intrapéritonéale de 100 mg/kg de biflavanone (I) […]'apparition de la coloration de 70 % . La rutine a la même dose ne provoque qu'un retard de 12 %

[2] = High-dose toxicity, intraperitoneal administration, rat; conditions: in vivo, ip, rat Sprague Dawley, male, read-out: dose maximale toujours tolérée
Procedure: Elle a été déterminée sur des groupes homogènes de souris Swiss et NMRI mâles, de race pure, pesant de 19 à 22 g et sur des groupes homogènes de rats Sprague Dawley màles adultes d'un poids moyen de 300 g..
En administration intrapéritonéale, aussi bien chez le rat que chez la souris, la dose maximale toujours tolérée est supérieure à 3 et 4.000 mg/kg.

[3] = molecular target: T1, aldose-réductase extraite de cristallins de rats (Rattus norvegicus, UniProt P07943); experiment: Aldose reductase inhibition in vitro (NADPH disappearance); format: biochemical; conditions: rat lens enzyme, pH 7, 25°C, 10 min preincubation, substrate aldéhyde d-glycérique; read-out: inhibition à 50 %
T1 construct: l'aldose-réductase extraite de cristallins de rats; from tissue; host or cells: rat lens (CD River rats)
Procedure: L'activité inhibitrice d'aldose-réductase des composés de la présente invention a été mise en évidence par des essais in vitro sur l'aldose-réductase […] selon la technique […] et J.H. KINOSHITA, J. Biol. Chem. 240 (1965) 877, […] et J.H. KINOSHITA, Biochemical Pharmacolo- gy 5 (1976) 2505-2613. : La biflavanone (I), mise en suspension dans du tampon pH 7, est placée en incubation à 25°C dans un […] bouché contenant l'aldose-réductase […] CD River. Après 10 mn de contact, le substrat ([…] introduit dans la cuve deré- action. La cinétique enzymatique est appréciée par la disparition, du milieu, du co-facteur Ac. Nicotinamide-adénine diphosphorique réduite (NADPH) selon la réaction : [drawing 6] On calcule l'activité enzymatique par détermination de la quantité de NADPH disparue. Les résultats sont exprimés en pourcentage de l'activité enzymatique de la préparation en l'absence de tout inhibiteur. Dans ces conditions on peut déterminer, par exemple, la dose minimale qui inhibe à 50 % l'activité enzymatique.

[4] = tested on: perméabilité des parois des vaisseaux sanguins; experiment: Beach and Steinetz method: Trypan blue content of chloroform-irritated skin; format: in vivo, lapin; conditions: rabbit
Source text: La technique d'AMBROSE et DE EDS a été modifiée afin de mesurer la coloration de la tache selon la technique de BEACH et STEINETZ [(J. Pharm. Expl. Therap. (1961) 131, n° 1, p. 400 à 406)]. Des lapins New-Zealand mâles de 2,5 kg reçoivent une injection IP de produit à tester, ou d'eau gommée pour les témoins.
Trente minutes après, sur la peau abdominale.préalablement épilée, un tampon de chloroforme est appliqué trente secondes, afin de créer une irritation locale qui favorise la diffusion du colorant hors des capillaires vers les liquides interstitiels.
Immédiatement après,une solution de Bleu Trypan à 25mg/kg est injectée dans la veine marginale de l'oreille. Une tache bleue apparait à l'endroit irrité. Le lapin est tué par Einjection intracardiaque de pentobarbital, 30 minutes après l'injection du Bleu Trypan.
Les fragments de peau sont prélevés, posés et laissés à digérer 24 heures dans HCI pur. Le Bleu Trypan est dosé selon la technique de BEACH et STEINETZ.
Après la dissolution complète, l'addition de 3 ml de chlorure de Benzalkonium en solution aqueuse à 12,80 % complexe le colorant qui est ensuite repris par 5 ml de chloroforme. Après centrifugation, la phase chloroformique bleue est rapidement soutirée et filtrée, la lecture spectrophotométrique est faite immédiatement afin d'éviter une concentration du colorant par évaporation du chloroforme. Les densités optiques à 620 mn sont traduites en µg de bleu/100 mg de tissu.
Le protocole opératoire précédent a été utilisé et les doses 200 et 400 mg ont été administrées. Les résultats, exprimés en ng de colorant par 100 g de peau fraiche sont donnés dans le tableau suivant : […]

[5] = tested on: résistance capillaire; experiment: Parrot method: capillary resistance under vitamin P-deficient diet; format: in vivo; conditions: injection of 50 mg/kg; cobaye; mean of 10 animals; measured 3 to 48 h after administration
Source text: Pour mettre en évidence l'action sur la résistance capillaire, nous avons utilisé […]. PARROT et coll. [C.R. Soc. Biol. 140 750 (1946)]. Elle consiste à étudier les variations de la résistance capillaire chez le cobaye soumis à un […] vitaminique P(C2), mais équilibré en vitamine C. La résistance capillaire est mesurée au niveau de la région lombaire en appliquant sur la peau, préalablement épilée, une ventouse de verre de 5 mm de diamètre. On détermine la valeur de la dépression, exprimée en cm de mercure; qu'il faut réaliser pour […], au bout de 50 secondes environ, 3 […] sur la surface entourée. Cette dépression […] comprise entre 25 et 35 cm de mercure, mais elle chute à 10 cm de Hg chez les animaux soumis au […]é pendant 10 jours. […] L'élévation de la résistance capillaire et sa durée sont […]- quement par la valeur de la surface obtenue en portant sur un système de coordonné[…]. On a constaté […] surface est de 20,8 cm ^2 après injection de 50 mg/kg de biflavanone (I), […] que la même dose de rutine ne donne que 6,42 cm^2.

[6] = tested on: perméabilité des parois des vaisseaux sanguins; experiment: Ambrose and De Eds method: time of appearance of Trypan blue at chloroform-irritated skin; format: in vivo, lapin; conditions: voie orale, suspension, rabbit, maximum of activity about 6 to 7 h after administration
Procedure: Nous avons utilisé une méthode dérivée de celle décrite par AMBROSE et DE EDS [J. Pharm. Exp. Ther. 90, 359 (1947)] . Un lapin mâle fauve, d'un poids compris entre 2,0 et 2,5 kg, est épilé sur toute la région ventrale à l'aide d'une pâte au sulfure de baryum. Le lendemain l'animal reçoit, en injection intraveineuse 25mg/kg d'une'solution aqueuse de Bleu Trypan à 1 p. 100. Trente minutes après cette injection,on applique pendant 30 secondes un tampon de coton de 1,2 cm de côté, imbibé de chloroforme, en deux ou trois points de la zone êpi- lée, et on note le temps d'apparition de la couleur bleue.
Ce temps doit être sensiblement constant quel que soit le point d'application du tampon et traduit la plus ou moins grande rapidité avec laquelle le colorant quitte le courant sanguin pour imprégner les tissus sous-cutanés.
Le produit à tester est alors aussitôt administré soit par voie intra-péritonéale, soit par voie orale. L'agent irritant est appliqué de nouveau, à des intervalles de quinze minutes, en d'autres points de la zone épilée : on note à chaque fois le temps d'apparition de la coloration bleue.
On opère en principe sur des lots de sept lapins par dose et par produit. Il est à noter que : • - la réponse à l'agent irritant n'étant pas forcément identique selon le point d'application sur l'abdomen, il faut faire varier systématiquement "les points témoins" et les "points traités" d'un lapin à l'autre; • - il faut toujours considérer le temps d'apparition de la coloration bleue et non le temps de son développement complet; • - au bout d'une heure d'expérience, et à chaque heure ensuite, il faut refaire une injection intraveineuse de Bleu Trypan de 1ml de solution aqueuse à 1 p.100; • - chaque lapin est son propre témoin.
Le protocole opératoire précédent a été utilisé et les doses suivantes ont été administrées : 500 mg et 1.000 mg/kg. La biflavanone (I) a été ingérée sous forme de solution aqueuse additionnée de 5 % de gomme adragante. Les résultats sont évalués en pourcentage d'augmentation du temps d'apparition de la couleur bleue au niveau du point d'application par rapport au temps de base mesuré avant traitement, et comparés à des substances de référence administrées dans les mêmes conditions catéchine hydrate, hespéridine, quercétine, rutine. Les résultats sont consignés dans le tableau ci-dessous, le maximum d'activité étant obtenu 6 à 7 heures environ après l'administration du produit.

[7] = I.P. 200 mg/kg, eau gommée control 4,62 ± 1,4
[8] = I.P. 400 mg/kg, eau gommée control 5,01 ± 2,3

Compound | IC50 [3] | Augmentation % du temps d'apparition par rapport au temps témoin ([6]; 1.000 mg/kg) | Augmentation % du temps d'apparition par rapport au temps témoin ([6]; 500 mg/kg) | further results
O=C1c2c(O)cc(O)c(C3C(=O)c4c(O)cc(O)cc4OC3c3ccc(O)c(O)c3)c2OC(c2ccc(O)c(O)c2)C1O (stereo not drawn) [Biflavanone (I), manniflavone] | 100 to 250 nM | 125% | 50% | retard de l'apparition de la coloration [1]: 70%; MTD [2]: > 3 mg/kg; CON[…] BLEU TRYPAN [4, 7]: 4 ± 2,3 µg/100 g DE PEAU; CON[…] BLEU TRYPAN [4, 8]: 3,1 ± 2,3 µg/100 g DE PEAU; surface (élévation de la résistance capillaire et sa durée, planimétrie) [5]: 20,8 cm^2
COc1ccc([C@@H]2CC(=O)c3c(O)cc(O[C@@H]4O[C@H](CO[C@@H]5O[C@@H](C)[C@H](O)[C@@H](O)[C@H]5O)[C@@H](O)[C@H](O)[C@H]4O)cc3O2)cc1O [Hespé-ridine, hespéridine] | – | 0% | 0% | –
O=C(O)CN1C(=O)c2cccc3cccc(c23)C1=O [Alrestatine, alrestatine] | 1000 nM | – | – | –
Oc1cc(O)c2c(c1)O[C@H](c1ccc(O)c(O)c1)[C@@H](O)C2 [Catéchine hydrate] | – | 50% | 38% | –
C[C@@H]1O[C@@H](OC[C@H]2O[C@@H](Oc3c(-c4ccc(O)c(O)c4)oc4cc(O)cc(O)c4c3=O)[C@H](O)[C@@H](O)[C@@H]2O)[C@H](O)[C@H](O)[C@H]1O [Rutine, rutine] | – | 77% | 27% | retard de l'apparition de la coloration [1]: 12%; CONCENTRATION DU BLEU TRYPAN [4, 7]: 3,6 ± 1,8 µg/100 g DE PEAU; CONCENTRATION DU BLEU TRYPAN [4, 8]: 3,2 ± 2 µg/100 g DE PEAU; surface (élévation de la résistance capillaire et sa durée, planimétrie) [5]: 6,42 cm^2
COc1ccc(-c2cc(=O)c3c(O)cc(O[C@@H]4O[C@H](CO[C@@H]5O[C@@H](C)[C@H](O)[C@@H](O)[C@H]5O)[C@@H](O)[C@H](O)[C@H]4O)cc3o2)cc1O [Diosmine, diosmine] | 50000 to 100000 nM | – | – | CONCENTRATION DU BLEU TRYPAN [4, 7]: 2,66 ± 2 µg/100 g DE PEAU; CONCENTRATION DU BLEU TRYPAN [4, 8]: 2,50 ±1,6 µg/100 g DE PEAU
O=c1c(O)c(-c2ccc(O)c(O)c2)oc2cc(O)cc(O)c12 [Quercé-tine, quercétine] | – | 0% | 0% | –
